# Measurements taken from patent publication US9656971B2, “COMT inhibitors” (Hoffmann-La Roche Inc., priority 2012, dated 2017).
# Where a name gives a salt, the structure may show the parent alone.
# Target: T1, Rec. human COMT (Homo sapiens, UniProt P21964)
# T1 sequence (P21964 1-271): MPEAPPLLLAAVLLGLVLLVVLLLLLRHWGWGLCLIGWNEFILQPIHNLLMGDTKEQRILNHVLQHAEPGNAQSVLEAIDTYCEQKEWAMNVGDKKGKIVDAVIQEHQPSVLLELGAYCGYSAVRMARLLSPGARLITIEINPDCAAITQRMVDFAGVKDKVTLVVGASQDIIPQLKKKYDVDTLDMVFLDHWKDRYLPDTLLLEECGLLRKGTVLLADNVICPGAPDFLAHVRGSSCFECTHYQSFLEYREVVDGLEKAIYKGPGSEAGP
# Test: COMT-Fluorescence Assay
# Assay type: biochemical
# Conditions: COMT-fluorescence assay, rec. human COMT 25 nM, 4-Nitrocatechol-Alexa488 200 nM, SAM 500 nM; read-out: IC50
# Experimental: This intramolecular interaction is disturbed if the 4-Nitrocatechol is methylated. […] This increase of fluorescence intensity can be followed in a kinetic measurement. The slope in the linear range of the kinetic is calculated. An inhibitor compound decreases the slope.
# Signal [rfu/min]=(rfu(end-point)−rfu(startpoint))/incubation_time_#2
row,Compound,IC50 [nM]
1,"O=c1[nH]cnc2c(O)cc(-c3ccnc(N4CCNCC4)c3)cc12 [Example 185, 8-Hydroxy-6-(2-(piperazin-1-yl)pyridin-4-yl)quinazolin-4(3H)-one]",20
2,"O=c1[nH]cnc2c(O)cc(C3=CCCCC3)cc12 [Example 186, 6-Cyclohexenyl-8-hydroxyquinazolin-4(3H)-one]",30
3,"O=c1[nH]cnc2c(O)cc(N3CCOCC3)cc12 [Example 187, 8-Hydroxy-6-morpholinoquinazolin-4(3H)-one]",710
4,"Cc1cn(C)c(-c2cc(O)c3nc[nH]c(=O)c3c2)n1 [Example 188, 6-(1,4-Dimethyl-1H-imidazol-2-yl)-8-hydroxyquinazolin-4(3H)-one]",1270
5,"O=c1[nH]cnc2c(O)cc(Oc3ccc(F)cc3)cc12 [Example 189, 6-(4-Fluorophenoxy)-8-hydroxyquinazolin-4(3H)-one]",840
6,"CN1CCN(C(=O)c2cccc(-c3cc(O)c4nc[nH]c(=O)c4c3)c2)CC1 [Example 191, 8-Hydroxy-6-[3-(4-methyl-piperazine-1-carbonyl)-phenyl]-3H-quinazolin-4-one]",30
7,"O=C(c1cccc(-c2cc(O)c3nc[nH]c(=O)c3c2)c1)N1CCS(=O)(=O)CC1 [Example 192, 6-[3-(1,1-Dioxo-1λ^6-thiomorpholine-4-carbonyl)-phenyl]-8-hydroxy-3H-quinazolin-4-one]",20
8,"CN1CCN(C(=O)c2ccccc2-c2cc(O)c3nc[nH]c(=O)c3c2)CC1 [Example 193, 8-Hydroxy-6-[2-(4-methyl-piperazine-1-carbonyl)-phenyl]-3H-quinazolin-4-one]",1280
9,"O=C(c1ccccc1-c1cc(O)c2nc[nH]c(=O)c2c1)N1CCS(=O)(=O)CC1 [Example 194, 6-[2-(1,1-Dioxo-1λ^6-thiomorpholine-4-carbonyl)-phenyl]-8-hydroxy-3H-quinazolin-4-one]",730
10,"O=c1[nH]cnc2c(O)cc(-c3ccc(F)cc3)c(F)c12 [Example 195, 5-Fluoro-6-(4-fluorophenyl)-8-hydroxyquinazolin-4(3H)-one]",10
11,"O=c1[nH]cnc2c(O)cc(Br)c(F)c12 [Example 196, 6-Bromo-5-fluoro-8-hydroxyquinazolin-4(3H)-one]",120
12,"O=c1[nH]cnc2c(O)ccc(F)c12 [Example 197, 5-Fluoro-8-hydroxyquinazolin-4(3H)-one]",2530
13,"Cc1ncccc1-c1cc(O)c2nc[nH]c(=O)c2c1F [Example 198, 5-Fluoro-8-hydroxy-6-(2-methylpyridin-3-yl)quinazolin-4(3H)-one]",10
14,"O=C(c1cccc(-c2cc(O)c3nc[nH]c(=O)c3c2)c1)N1CCC(F)(F)CC1 [Example 199, 6-[3-(4,4-Difluoro-piperidine-1-carbonyl)-phenyl]-8-hydroxy-3H-quinazolin-4-one]",20
15,"O=C(c1ccc(-c2cc(O)c3nc[nH]c(=O)c3c2)cc1)N1CCC(F)(F)CC1 [Example 200, 6-[4-(4,4-Difluoro-piperidine-1-carbonyl)-phenyl]-8-hydroxy-3H-quinazolin-4-one]",10
16,"O=c1[nH]cnc2c(O)c(F)c(-c3ccc(F)cc3)cc12 [Example 201, 7-Fluoro-6-(4-fluorophenyl)-8-hydroxyquinazolin-4(3H)-one]",20
17,"Cc1ccc(-c2cc(O)c3nc[nH]c(=O)c3c2)c(C)n1 [Example 202, 6-(2,6-Dimethyl-pyridin-3-yl)-8-hydroxy-3H-quinazolin-4-one]",20
18,"Cc1nc(-c2ccccc2)sc1-c1cc(O)c2nc[nH]c(=O)c2c1 [Example 203, 8-Hydroxy-6-(4-methyl-2-phenylthiazol-5-yl)quinazolin-4(3H)-one]",10
19,"Cc1c(-c2cc(O)c3nc[nH]c(=O)c3c2)cnn1-c1ccccc1 [Example 204, 8-Hydroxy-6-(5-methyl-1-phenyl-1H-pyrazol-4-yl)quinazolin-4(3H)-one]",20
20,"Cc1n[nH]cc1-c1cc(O)c2nc[nH]c(=O)c2c1 [Example 205, 8-Hydroxy-6-(3-methyl-1H-pyrazol-4-yl)quinazolin-4(3H)-one]",170
21,"Cc1c(-c2cc(O)c3nc[nH]c(=O)c3c2)cnn1C [Example 206, 6-(1,5-Dimethyl-1H-pyrazol-4-yl)-8-hydroxyquinazolin-4(3H)-one]",30

row,Compound,IC50 [nM]
1,"N#Cc1ccccc1-c1cc(O)c2nc[nH]c(=O)c2c1 [Example 207, 2-(8-Hydroxy-4-oxo-3,4-dihydroquinazolin-6-yl)benzonitrile]",20
2,"N#CCc1ccccc1-c1cc(O)c2nc[nH]c(=O)c2c1 [Example 208, 2-(2-(8-Hydroxy-4-oxo-3,4-dihydroquinazolin-6-yl)phenyl)acetonitrile]",50
3,"CN(C)c1ccccc1-c1cc(O)c2nc[nH]c(=O)c2c1 [Example 209, 6-(2-(Dimethylamino)phenyl)-8-hydroxyquinazolin-4(3H)-one]",370
4,"Cc1ccccc1-c1cc(O)c2nc[nH]c(=O)c2c1 [Example 210, 8-Hydroxy-6-o-tolylquinazolin-4(3H)-one]",30
5,"CCOc1cc(F)ccc1-c1cc(O)c2nc[nH]c(=O)c2c1 [Example 211, 6-(2-Ethoxy-4-fluorophenyl)-8-hydroxyquinazolin-4(3H)-one]",70
6,"O=c1[nH]cnc2c(O)cc(-c3ccccc3-c3ccccc3)cc12 [Example 214, 6-(Biphenyl-2-yl)-8-hydroxyquinazolin-4(3H)-one]",640
7,"O=c1[nH]cnc2c(O)cc(-c3cccnc3OCC(F)(F)F)cc12 [Example 216, 8-Hydroxy-6-(2-(2,2,2-trifluoroethoxy)pyridin-3-yl)quinazolin-4(3H)-one]",40
8,"CCc1ccccc1-c1cc(O)c2nc[nH]c(=O)c2c1 [Example 217, 6-(2-Ethylphenyl)-8-hydroxyquinazolin-4(3H)-one]",50
9,"CC(C)N(Cc1ccccc1-c1cc(O)c2nc[nH]c(=O)c2c1)C(C)C [Example 218, 6-(2-((Diisopropylamino)methyl)phenyl)-8-hydroxyquinazolin-4(3H)-one]",1400
10,"Cc1cnccc1-c1cc(O)c2nc[nH]c(=O)c2c1 [Example 219, 8-Hydroxy-6-(3-methylpyridin-4-yl)quinazolin-4(3H)-one]",20
11,"COCc1ccccc1-c1cc(O)c2nc[nH]c(=O)c2c1 [Example 220, 8-Hydroxy-6-(2-(methoxymethyl)phenyl)quinazolin-4(3H)-one]",20
12,"O=c1[nH]cnc2c(O)cc(-c3ccccc3C(F)(F)F)cc12 [Example 221, 8-Hydroxy-6-(2-(trifluoromethyl)phenyl)quinazolin-4(3H)-one]",30
13,"O=c1[nH]cnc2c(O)cc(-c3ccccc3Oc3ccccc3)cc12 [Example 222, 8-Hydroxy-6-(2-phenoxyphenyl)quinazolin-4(3H)-one]",60
14,"CSc1ccccc1-c1cc(O)c2nc[nH]c(=O)c2c1 [Example 223, 8-Hydroxy-6-(2-(methylthio)phenyl)quinazolin-4(3H)-one]",20
15,"CCOc1ccccc1-c1cc(O)c2nc[nH]c(=O)c2c1 [Example 225, 6-(2-Ethoxyphenyl)-8-hydroxyquinazolin-4(3H)-one]",60
16,"CC(C)N(C(=O)c1ccccc1-c1cc(O)c2nc[nH]c(=O)c2c1)C(C)C [Example 226, 2-(8-Hydroxy-4-oxo-3,4-dihydroquinazolin-6-yl)-N,N-diisopropylbenzamide]",1030
17,"O=c1[nH]cnc2c(O)cc(-c3ccccc3OCc3ccccc3)cc12 [Example 227, 6-(2-(Benzyloxy)phenyl)-8-hydroxyquinazolin-4(3H)-one]",50
18,"CCCCOc1ccccc1-c1cc(O)c2nc[nH]c(=O)c2c1 [Example 228, 6-(2-Butoxyphenyl)-8-hydroxyquinazolin-4(3H)-one]",50
19,"CN(C)Cc1cccc(-c2cc(O)c3nc[nH]c(=O)c3c2)c1 [Example 229, 6-(3-Dimethylaminomethyl-phenyl)-8-hydroxy-3H-quinazolin-4-one]",54
20,"CN1CCN(C(=O)c2cc(-c3cc(O)c4nc[nH]c(=O)c4c3)n(C)n2)CC1 [Example 230, 8-Hydroxy-6-(1-methyl-3-(4-methylpiperazine-1-carbonyl)-1H-pyrazol-5-yl)quinazolin-4(3H)-one formate]",20
21,"COCc1cc(C(=O)N2CCN(C)CC2)ccc1-c1cc(O)c2nc[nH]c(=O)c2c1 [Example 231, 8-Hydroxy-6-[2-methoxymethyl-4-(4-methyl-piperazine-1-carbonyl)-phenyl]-3H-quinazolin-4-one; compound with formic acid]",10

# Same assay, conditions: IC50, COMT-fluorescence assay, rec. human COMT 25 nM, 4-Nitrocatechol-Alexa488 200 nM, SAM 500 nM
row,Compound,IC50 [nM]
1,"CN1CCN(c2cc(O)c3nc[nH]c(=O)c3c2)CC1 [Example 190, 8-Hydroxy-6-(4-methyl-piperazin-1-yl)-3H-quinazolin-4-one]",1290
2,"CS(=O)(=O)c1ccccc1-c1cc(O)c2nc[nH]c(=O)c2c1 [Example 212, 8-Hydroxy-6-(2-(methylsulfonyl)phenyl)quinazolin-4(3H)-one]",870
3,"Cc1ccc(F)cc1-c1cc(O)c2nc[nH]c(=O)c2c1 [Example 213, 6-(5-Fluoro-2-methylphenyl)-8-hydroxyquinazolin-4(3H)-one]",30
4,"CCOc1cc(Cl)ccc1-c1cc(O)c2nc[nH]c(=O)c2c1 [Example 215, 6-(4-Chloro-2-ethoxyphenyl)-8-hydroxyquinazolin-4(3H)-one]",70
5,"O=c1[nH]cnc2c(O)cc(-c3ccccc3N3CCOCC3)cc12 [Example 224, 8-Hydroxy-6-(2-morpholinophenyl)quinazolin-4(3H)-one]",220
